We go through 13 compounds from PubChem BioAssay (NCI).

Where “and” joins values, the source holds several entries; their conditions need not be identical. Equal entries are not always repeated.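 Growth conditions: 96-well plates. Treatment: test compound, 48 hours, 5 concentrations. Analysis: linear interpolation between bracketing concentrations; unreached endpoints set to highest concentration. GI50 marks 50% less growth. TGI is the concentration that stops growth completely.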 A value given as a limit tells only on which side of the number the result lay.

Test in all cases: NCI tumour cell line growth inhibition, 48 h
Assay [1] has as its system ACHN renal.
Assay [2] relates to SK-MEL-28 melanoma.
For assay [3], the system named is UACC-62 melanoma.
The test system of assay [4] is HCT-15 colon.
In assay [5] the test system is RPMI-8226 leukemia.
The test system of assay [6] is HOP-62 NSCLC.
The subject of assay [7] is EKVX NSCLC.
The test system of assay [8] is SF-539 CNS.
Assay [9] concerns SN12C renal.
Assay [10] relates to NCI-H226 lung.

Turning to `O=C(NC12CC3CC(CC(C3)C1)C2)C(=O)c1c[nH]c2ccccc12`, the TGI in assay [1] worked out at 28.8 µM; in [2], 30.3 µM; in assay [3] it was 26.5 µM; in assay [4] it was 24.4 µM; in [5] it was 55.3 µM; in assay [6], 36.7 µM. Further, the TGI in assay [7] came out at 32.2 µM; in assay [8] it was 26.7 µM; in [9], 30.4 µM.
`COc1ccc2c(c1)C(=O)c1c-2n(CCCI)c(=O)c2cc([N+](=O)[O-])ccc12`: the GI50 in assay [1] was 138 nM and 29.3 nM; in assay [2], 0.861 µM and 3.07 µM; in [3], 109 nM and 149 nM; in [4], 1050 nM and 1130 nM; in assay [10], 671 nM and 890 nM; in [6], 143 nM. Moreover, the GI50 in [8] was 96.2 nM and 57.7 nM; in assay [9] it was 105 nM and 312 nM. Besides, the TGI in assay [1] was 1.03 µM and 0.239 µM; in assay [2], 50 µM and > 100 µM; in [3], 0.851 µM and 1.35 µM; in assay [4], 50 µM and 28 µM; in [10], 6.02 µM and 14.7 µM; in assay [6], 7.77 µM. For the same compound, the TGI in [7] is 11.8 µM and > 100 µM; in assay [8] it was 0.338 µM and 0.376 µM.
As for `CC(=O)OCc1cc2ccccc2nc1C(Br)(Br)Br`, the TGI in [1] came to 27.3 µM; in assay [2], 42.6 µM; in assay [3], 32.2 µM; in assay [4], 54.7 µM; in assay [10], 60.8 µM; in assay [6], 56.3 µM. Further, the TGI in [7] worked out at 41.8 µM; in assay [8] it was 38.2 µM; in assay [9] it was 26.3 µM.
Take `Oc1ccc2oc3ncc(Br)c(-c4ccccc4)c3c2c1`: the GI50 was above 100000 nM in assay [1]; above 100 µM in assay [2]; above 100000 nM in [4]; above 100 µM in [5]; above 100000 nM in assay [6]; above 100 µM in [7]. Besides, the TGI in [1], in [2], in assay [4], in assay [5], in [6] and in [7] was above 100 µM in each case.
Regarding `CN(C)CCCNC(=O)c1cc(NC(=O)c2cc(NC(=O)CCNS(=O)(=O)c3ccc4c(c3)C(=O)c3ccccc3C4=O)cn2C)cn1C`, the GI50 was above 100000 nM in [3]; above 100 µM in assay [5]; above 100000 nM in [10]; above 100 µM in assay [7]; above 100000 nM in assay [8]; above 100000 nM in assay [9]. For the same compound, the TGI in assay [3], in assay [5], in assay [10], in assay [7], in [8] and in assay [9] was above 100 µM throughout.
Take `CC(C)OP(=O)(NC(=S)c1ccccc1)OC(C)C`: the TGI in assay [1], in assay [2], in [3], in [4], in assay [10] and in [7] was above 100 µM in each case. For the same compound, the TGI in assay [8] and in assay [9] was above 100 µM in each case.
On to `O=C1c2ccccc2S(=O)(=O)c2cc(-c3nn[nH]n3)ccc21`, for which the TGI in [1], in assay [2], in assay [3], in assay [4], in [10] and in assay [6] was above 100 µM throughout. Besides, the TGI in [7], in [8] and in assay [9] was above 100 µM in each case.
On to `CN1C(=O)C2C(C1=O)C1(O)c3ccccc3C2(N)c2ccccc21` (stereo not given), for which the TGI in assay [1], in [2], in assay [3], in assay [4], in assay [10] and in assay [6] was above 100 µM each time. In addition, the TGI in [7], in assay [8] and in assay [9] was above 100 µM each time.
`CCN(CC)c1ccc(N=Nc2ccc(-c3nc4ccc[n+](C)c4o3)cc2)cc1`: the TGI turned out to be 22.6 µM in [3]; 22.3 µM in [4]; 7.38 µM in assay [5]; 27.6 µM in assay [10]; 29.9 µM in [6]; 26.7 µM in assay [7]. Further, the values for the TGI in assay [8] and in assay [9] were 20.3 µM and 45.5 µM, respectively.
For `COc1ccccc1NC(=O)CC(=O)N/N=C/c1ccc(N(CCC#N)S(=O)(=O)c2ccccc2)cc1`, the TGI in [1], in [2], in assay [3], in [4], in [5] and in assay [10] was above 100 µM throughout. Further, the TGI in assay [6] and in assay [7] was above 100 µM in each case.
Take `COc1cccc(/C=N/C(/N=C/c2cccc(OC)c2O)c2cccc(OC)c2O)c1O`: the TGI in assay [1] was 58.6 µM; in assay [2], above 100 µM; in [3], 59.8 µM; in assay [4], above 100 µM; in assay [5], above 100 µM; in [6], above 100 µM. Also, the figures for the TGI in [7], in assay [8] and in assay [9] were 52 µM, 48.9 µM and 77.6 µM, respectively.
On to `CCOC(=O)c1[nH]c(COC(C)=O)c2c1CCCCCCCCCC2`, for which the TGI in assay [3], in [4], in [5], in assay [10], in assay [6] and in assay [7] was above 100 µM each time. Besides, the TGI in assay [8] and in assay [9] was above 100 µM in each case.
Turning to `CC1(C)C2C=CC1C(=O)CC2` (stereo not given), the TGI in [1], in assay [2], in [4], in assay [5], in assay [10] and in assay [6] was above 100 µM throughout. The TGI in assay [7] and in assay [8] was above 100 µM throughout.
